Measurements reported in article PMC8615111, “Phenolic Thiazoles with Antioxidant and Antiradical Activity. Synthesis, In Vitro Evaluation, Toxicity, Electrochemical Behavior, Quantum Studies and Antimicrobial Screening” (Antioxidants, 2021).
Where two headings read alike, the source gives them in different places.

What was measured:
[1] = DPPH˙ radical scavenging by cyclic voltammetry
Procedure: The antioxidant properties were evaluated in terms of their activity against some free radicals, and other compounds reported in the literature, relevant for this purpose, such as: • ferric ions (Fe^3+)—used to test the reduction of the antioxidant character of the compounds; • DPPH˙ free radical– used to test the scavenging effect of the compounds on this radical; • hydrogen peroxide (H2O2)—used to test the scavenging effect of the synthesized molecules on this compound; • 2,2,6,6-tetramethylpiperidinyl-1-oxy (TEMPO)—used to test the scavenging effect of the synthesized molecules on this compound.
The radical scavenging properties of the novel compounds and the other antioxidants were determined using a stock DPPH˙ radical solution prepared in absolute ethanol. The antioxidant samples were mixed with DPPH˙ solution and HClO4 electrolyte and incubated in the dark for 30 min. The remaining redox activity of DPPH was measured by cycling the potential between −0.7 V and 1.2 V, with a scan rate of 0.1 V/s.
The nitrogen-centered 2-2-diphenyl-1-picrylhydrazyl radical (DPPH˙) based assay is one of the most commonly employed method to evaluate the ability of a compound to scavenge or neutralize free radicals based on the reduction of the radical.
Taking into account the redox activity of DPPH˙, its diminution by an antioxidant can also be followed by CV, which is expected to show changes in the voltammetric peaks. Figure A5 reports the electrochemical study of initial electrooxidation of DPPH˙ and the novel compounds compared to remaining peaks after their incubation for 30 min. The decrease of all the peaks after mixture incubation indicates the partial consumption of DPPH˙.

[2] = system: HaCaT cells; test: Cytotoxicity determination, MTT method; assay type: cell-based; conditions: Homo sapiens, HaCaT cells, MTT, 24 h
Procedure: To determine the cytotoxic action of the obtained compounds 5[…], and 8a-b, a normal human keratinocytes cell line was used (HaCaT keratinocytes, CLS-300493, Eppelheim, Germany). HaCaT cells were cultured in Dulbecco's Modified Eagle Media (DMEM) supplemented with 1% L-glutamine, 1% penicillin-streptomycin, and 5% fetal bovine serum. At 80% confluence, the cells were transferred to 96 well plates at a confluence of 12×10^3 cells/well and left to attach for 24 h at 37°C and 5% CO2 in a humidified atmosphere. […] After 24 h, the culture media was replaced with 100 μL of MTT solution at a final concentration of 5 μg/mL/well and left to interact with the cells for 2 h in the incubator. After this, the MTT solution was replaced with 100 μL of isopropanol, left to dissolve the formazan crystals for 5 min, and read at 550 and 630 nm using a BioTek Epoch plate reader (BioTek Instruments, Winooski, VT, USA) and Gen5 software (version 1.09).

[3] = system: C. albicans ATCC 102310; test: Antifungal activity, modified microdilution; assay type: cell-based; conditions: Candida albicans, ATCC102310
Procedure: (§1) For evaluating the antimicrobial activity of the compounds, […] aerobic microbial strains were used: S. aureus ATCC 25923, S. pyogenes ATCC 19615, P. aeruginosa ATCC 27853, S. enterica ISM 83/37, S. typhimurium ATCC 14028, E. coli ATCC 8739, E. coli ATCC 25922, and C. albicans ATCC 102310 obtained from Food Biotechnology Laboratory, Life Sciences Institute, University of Agricultural Sciences, and Veterinary Medicine Cluj Napoca, where the experiment was performed. The antimicrobial activity of the compounds was determined using a modified microdilution technique, and the followed protocol was previously reported.
(§2) The antimicrobial activity of the final compounds, against seven aerobic microbial strains (S. aureus ATCC 25923, S. pyogenes ATCC 19615, P. aeruginosa ATCC 27853, S. enterica ISM 83/37, S. typhimurium ATCC 14028, E. coli ATCC 8739, E. coli ATCC 25922), and a fungal strain (C. albicans ATCC 102310), was determined using a modified microdilution technique.
(§3) The results of the antimicrobial activity evaluation of the compounds, in comparison to norfloxacin and chloramphenicol used as standard antibiotics and fluconazole used as reference antifungal, are depicted in Table 10.

[4] = system: S. enterica ISM 83/37; test: Antimicrobial activity, modified microdilution; assay type: cell-based; conditions: Salmonella enterica, ISM83/37
Procedure: as §1, §2, §3

[5] = system: S. pyogenes ATCC 19615; test: Antimicrobial activity, modified microdilution; assay type: cell-based; conditions: Streptococcus pyogenes, ATCC19615
Procedure: as §1, §2, §3

[6] = system: P. aeruginosa ATCC 27853; test: Antimicrobial activity, modified microdilution; assay type: cell-based; conditions: Pseudomonas aeruginosa, ATCC27853
Procedure: as §1, §2, §3

[7] = system: E. coli ATCC 8739; test: Antimicrobial activity, modified microdilution; assay type: cell-based; conditions: Escherichia coli, ATCC8739
Procedure: as §1, §2, §3

[8] = system: E. coli ATCC 25922; test: Antimicrobial activity, modified microdilution; assay type: cell-based; conditions: Escherichia coli, ATCC25922
Procedure: as §1, §2, §3

[9] = system: S. typhimurium ATCC 14028; test: Antimicrobial activity, modified microdilution; assay type: cell-based; conditions: Salmonella enterica
Procedure: as §1, §2, §3

[10] = system: S. aureus ATCC 25923; test: Antimicrobial activity, modified microdilution; assay type: cell-based; conditions: Staphylococcus aureus, ATCC25923
Procedure: as §1, §2, §3

[11] = Cu^2+ chelation assay; assay type: biochemical
[12] = ABTS˙^+ radical scavenging assay; assay type: biochemical; conditions: for IC50: ABTS˙^+ scavenging
Procedure: The assay was based on the decolorization of green (2,2′-azinobis-(3-ethylbenzothiazoline-6-sulfonic acid) ABTS˙^+ to ABTS, on the principle reported by Re et al. and was carried out according to our previously published research.
Later, 1950 µL of ABTS˙^+ reagent was added to all cuvettes and they were shaken for well over 10 min in the dark at room temperature. The absorbance of the resulted solutions found in cuvettes was determined spectrophotometrically at λ = 734 nm. The ABTS scavenging activity of the compounds was calculated using the following Equation (1):(1) ABTS scavenging (%)=control absorbance−sample absorbance/control absorbance×100

[13] = compound alone 0.5 mM in 0.1 M HClO4, 1st Eox column
[14] = compound alone 0.5 mM in 0.1 M HClO4, 1st Iox column
[15] = compound alone, 2nd Ered column

Row | Compound | Eox (V) [1, 13] [V] | Iox (μA) [1, 14] [μA] | Ered (V) [1, 15] [V] | Ired (μA) ([1]; compound alone, 2nd Ired) | Eox (V) ([1]; compound alone, 3rd Eox column) | Iox (μA) ([1]; compound alone, 3rd Iox column) | IC50 ([2]; read-out: IC50) [µM] | IC50 ([2]; read-out: IC50 (µg/mL)) [µg/mL] | MIC [4] [µg/mL] | Chelation Capacity (%), cupric ions ([11]; 3.36 µg/mL) [%] | Chelation Capacity (%), cupric ions ([11]; 6.72 µg/mL) [%] | Chelation Capacity (%), cupric ions ([11]; 10.08 µg/mL) [%] | Chelation Capacity (%), cupric ions ([11]; 13.44 µg/mL) [%] | Chelation Capacity (%), cupric ions ([11]; 16.80 µg/mL) [%] | % of ABTS˙^+ Scavenged ([12]; 0.5 µg/mL) [%] | % of ABTS˙^+ Scavenged ([12]; 0.75 µg/mL) [%] | % of ABTS˙^+ Scavenged ([12]; 1 µg/mL) [%] | % of ABTS˙^+ Scavenged ([12]; 1.5 µg/mL) [%] | % of ABTS˙^+ Scavenged ([12]; 2.5 µg/mL) [%] | IC50 [12] [µg/mL] | other results
1 | Cl.Oc1ccc(/C=N/Nc2nc(-c3ccc(O)c(O)c3)cs2)c(O)c1 [Compound 8b, (E)-2-(2,4-dihydroxybenzylidene)-1-(4-(3,4-dihydroxyphenyl)thiazol-2-yl)hydrazin-1-ium chloride] | 0.259 | 10.92 | 0.127 | −3.52 | 0.47 | 29.61 | 22.5 | 8.54 | > 100 | 7.34 | 11.97 | 16.62 | 20.30 | 26.71 | 40.09 | 44.44 | 50.79 | 66.66 | 96.82 | 0.91 | Ered (V) ([1]; compound + DPPH, 30 min, 1st Ered): 0.259 V; Ired (μA) ([1]; compound + DPPH, 30 min, 1st Ired): −14.96 μA; Eox (V) ([1]; compound + DPPH, 30 min, 3rd Eox column): 0.457 V; Iox (μA) ([1]; compound + DPPH, 30 min, 3rd Iox column): 18.63 μA; Eox (V) ([1]; compound + DPPH, after 30 min of reaction, 1st Eox column): 0.247 V; Iox (μA) ([1]; compound + DPPH, after 30 min of reaction, 1st Iox column): 17.56 μA; MIC ([3]; C. albicans ATCC 102310, read-out: MIC): > 100 µg/mL; MIC ([5]; S. pyogenes ATCC 19615, read-out: MIC): > 100 µg/mL; MIC ([6]; P. aeruginosa ATCC 27853, read-out: MIC): 31.2 µg/mL; MIC ([7]; E. coli ATCC 8739, read-out: MIC): > 100 µg/mL; MIC ([8]; E. coli ATCC 25922, read-out: MIC): > 100 µg/mL; MIC ([9]; S. typhimurium ATCC 14028, read-out: MIC): > 100 µg/mL; MIC ([10]; S. aureus ATCC 25923, read-out: MIC): > 100 µg/mL
2 | Br.C/C(=N\Nc1nc(-c2ccccc2)cs1)c1ccc(O)cc1O [Compound 6a, (E)-2-(1-(2,4-dihydroxyphenyl)ethylidene)-1-(4-phenylthiazol-2-yl)hydrazin-1-ium bromide] | 0.232 | 4.99 | 0.193 | −4.16 | 0.565 | 4.37 | 312 | 127 | > 100 | 6.33 | 10.30 | 13.65 | 15.90 | 18.67 | 4.75 | 7.92 | 12.68 | 22.21 | 36.01 | 3.34 | Iox (μA) ([1]; compound + DPPH, 30 min): 18.21 μA; Eox (V) ([1]; compound + DPPH, 30 min, 2nd Eox): 0.379 V; MIC [3]: > 100 µg/mL; MIC [5]: > 100 µg/mL; MIC [6]: 31.2 µg/mL; MIC [7]: > 100 µg/mL; MIC [8]: > 100 µg/mL; MIC [9]: > 100 µg/mL; MIC [10]: > 100 µg/mL
